Measured values published in PubChem BioAssay AID1963858 (Molecular Pharmacology Branch, DTP, NCI, 2024).

Test system: HOP-62 multicell spheroids with HUVEC/MSC, viability
Experiment: Anticancer human tumor HOP-62 cell line growth inhibition [KRAS2];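 note: viability read after a week of compound exposure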;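 for viability, T/C: 100% = DMSO vehicle-treated spheroids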
Settings: for IC50: curve of first compound; for viability, T/C: stronger effect = lower value
Procedure, shortened: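 KRAS-mutant tumor cells were grown as spheroids with HUVEC endothelial cells and human MSCs as stroma. Targeted agents were tested alone and with KRAS pathway inhibitors. Doses started at or near clinical Cmax, or 10 microM, descending half-log.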

[1] = second compound 0.1 µM, first compound 0.0316 µM
[2] = second compound 0.1 µM, first compound 0.1 µM
[3] = second compound 0.1 µM, first compound 0.316 µM
[4] = second compound 0.1 µM, first compound 1 µM
[5] = second compound 0.1 µM, first compound 3.16 µM
[6] = second compound 0.1 µM, first compound 10 µM
[7] = second compound 0.316 µM, first compound 0.0316 µM
[8] = second compound 0.316 µM, first compound 0.1 µM
[9] = second compound 0.316 µM, first compound 0.316 µM
[10] = second compound 0.316 µM, first compound 1 µM
[11] = second compound 0.316 µM, first compound 3.16 µM
[12] = second compound 0.316 µM, first compound 10 µM
[13] = second compound 1 µM, first compound 0.0316 µM
[14] = second compound 1 µM, first compound 0.1 µM
[15] = second compound 1 µM, first compound 0.316 µM
[16] = second compound 1 µM, first compound 1 µM
[17] = second compound 1 µM, first compound 3.16 µM
[18] = second compound 1 µM, first compound 10 µM
[19] = second compound 3.16 µM, first compound 0.0316 µM
[20] = second compound 3.16 µM, first compound 0.1 µM
[21] = second compound 3.16 µM, first compound 0.316 µM
[22] = second compound 3.16 µM, first compound 1 µM
[23] = second compound 3.16 µM, first compound 3.16 µM
[24] = second compound 3.16 µM, first compound 10 µM
[25] = second compound 10 µM, first compound 0.0316 µM
[26] = second compound 10 µM, first compound 0.1 µM
[27] = second compound 10 µM, first compound 0.316 µM
[28] = second compound 10 µM, first compound 1 µM
[29] = second compound 10 µM, first compound 3.16 µM
[30] = second compound 10 µM, first compound 10 µM

Row | SMILES | IC50 (second compound 0.1 µM) | IC50 (second compound 0.316 µM) | IC50 (second compound 1 µM) | IC50 (second compound 3.16 µM) | IC50 (second compound 10 µM) | viability, T/C [1] | viability, T/C [2] | viability, T/C [3] | viability, T/C [4] | viability, T/C [5] | viability, T/C [6] | viability, T/C [7] | viability, T/C [8] | viability, T/C [9] | viability, T/C [13] | viability, T/C [14] | viability, T/C [19] | viability, T/C [20] | viability, T/C [25] | viability, T/C [26] | also measured
1 | COc1cc(Nc2ncc3c(n2)-c2ccc(Cl)cc2C(c2c(F)cccc2OC)=NC3)ccc1C(=O)O + CC1OCC2(CCN(c3cnc(Sc4ccnc(N)c4Cl)c(N)n3)CC2)C1N | 0.183 µM | 0.0728 µM | < 0.0316 µM | < 0.0316 µM | < 0.0316 µM | 61.5% | 53.9% | 45.7% | 39% | 26.9% | 20.1% | 56% | 47.8% | 38.5% | 34.6% | 29.7% | 21.9% | 18.9% | 22.7% | 17.1% | viability, T/C [10]: 31.3%; viability, T/C [11]: 22%; viability, T/C [12]: 16.3%; viability, T/C [15]: 27.1%; viability, T/C [16]: 26.1%; viability, T/C [17]: 21.1%; viability, T/C [18]: 15.4%; viability, T/C [21]: 22.2%; viability, T/C [22]: 21.7%; viability, T/C [23]: 14.7%; viability, T/C [24]: 11.4%; viability, T/C [27]: 18.4%; viability, T/C [28]: 17.4%; viability, T/C [29]: 16.2%; viability, T/C [30]: 10.7%
2 | COc1cc2nccc(Oc3ccc(NC(=O)C4(C(=O)Nc5ccc(F)cc5)CC4)cc3)c2cc1OC + CC1OCC2(CCN(c3cnc(Sc4ccnc(N)c4Cl)c(N)n3)CC2)C1N | 7.77 µM | 2.26 µM | 0.0316 µM | < 0.0316 µM | < 0.0316 µM | 88.3% | 83% | 88% | 91.1% | 77.8% | 42.2% | 81.8% | 67.3% | 73.4% | 43.5% | 50.5% | 33.2% | 24.1% | 30.8% | 19.3% | viability, T/C [10]: 84.1%; viability, T/C [11]: 38.9%; viability, T/C [12]: 33.5%; viability, T/C [15]: 49.4%; viability, T/C [16]: 52.7%; viability, T/C [17]: 19%; viability, T/C [18]: 27.5%; viability, T/C [21]: 16.4%; viability, T/C [22]: 17%; viability, T/C [23]: 15.9%; viability, T/C [24]: 9.51%; viability, T/C [27]: 20.4%; viability, T/C [28]: 16.8%; viability, T/C [29]: 11.6%; viability, T/C [30]: 16.7%
3 | Cn1ncnc1[C@H]1c2n[nH]c(=O)c3cc(F)cc(c23)N[C@@H]1c1ccc(F)cc1 + CC1OCC2(CCN(c3cnc(Sc4ccnc(N)c4Cl)c(N)n3)CC2)C1N | > 0.1 µM | > 0.1 µM | 0.00139 µM | < 0.000316 µM | < 0.000316 µM | 80.2% | 73% | – | – | – | – | 72.5% | 52.6% | – | 32.7% | 37.9% | 17.5% | 22.5% | 24.1% | 21.1% | viability, T/C (second compound 0.1 µM, first compound 0.000316 µM): 88.7%; viability, T/C (second compound 0.1 µM, first compound 0.001 µM): 97.9%; viability, T/C (second compound 0.1 µM, first compound 0.00316 µM): 94.1%; viability, T/C (second compound 0.1 µM, first compound 0.01 µM): 87.1%; viability, T/C (second compound 0.316 µM, first compound 0.000316 µM): 86.5%; viability, T/C (second compound 0.316 µM, first compound 0.001 µM): 66.8%; viability, T/C (second compound 0.316 µM, first compound 0.00316 µM): 62.7%; viability, T/C (second compound 0.316 µM, first compound 0.01 µM): 69.3%; viability, T/C (second compound 1 µM, first compound 0.000316 µM): 65.2%; viability, T/C (second compound 1 µM, first compound 0.001 µM): 56.9%; viability, T/C (second compound 1 µM, first compound 0.00316 µM): 29.8%; viability, T/C (second compound 1 µM, first compound 0.01 µM): 31.4%; viability, T/C (second compound 3.16 µM, first compound 0.000316 µM): 40.6%; viability, T/C (second compound 3.16 µM, first compound 0.001 µM): 31.7%; viability, T/C (second compound 3.16 µM, first compound 0.00316 µM): 37%; viability, T/C (second compound 3.16 µM, first compound 0.01 µM): 23.7%; viability, T/C (second compound 10 µM, first compound 0.000316 µM): 36.9%; viability, T/C (second compound 10 µM, first compound 0.001 µM): 30.3%; viability, T/C (second compound 10 µM, first compound 0.00316 µM): 31%; viability, T/C (second compound 10 µM, first compound 0.01 µM): 27.5%
